Assay results from ChEMBL document CHEMBL3243982, “Synthesis of pyrimido[5,4-c]quinolines and related quinolines as potential antimalarials” (J Med Chem, 1978).
Calls of active or inactive are those of the source. No cut-off for these calls is given here.

What follows are compounds tested on Plasmodium berghei (assay: Antimalarial activity against blood-induced Plasmodium berghei infected in mouse at 640 mg/kg).
Type: functional, organism-based
Set-up: dose 640 mg/kg

**Q.** How did the Activity turn out when `CCNCc1c(C)nc2ccc(OC)cc2c1Nc1cccc(Cl)c1` was run?
**A.** The Activity was “inactive”.

**Q.** With `CCN(CC)Cc1c(C)[nH]c2cc(Cl)ccc2c1=O` as the compound, how does the Activity read?
**A.** The Activity was “inactive”.

**Q.** How did the Activity turn out when `CCNCc1c(C)[nH]c2ccc(C)cc2c1=O` was run?
**A.** Its Activity is “inactive”.

**Q.** `CCN1Cc2c(C)nc3ccc(C)cc3c2N(c2cccc(Cl)c2)C1` was tested. Which Activity did it give?
**A.** Its Activity is “inactive”.

**Q.** How did the Activity turn out when `CCN1Cc2c(/C=C/c3ccccc3)nc3ccc(OC)cc3c2N(c2cccc(Cl)c2)C1` was run?
**A.** The Activity was “inactive”.

**Q.** Which Activity does the source give for `CCNCc1c(C)[nH]c2ccc(OC)cc2c1=O` here?
**A.** Its Activity is “inactive”.

**Q.** `CCN1Cc2c(C)nc3ccc(OC)cc3c2N(c2cccc(Cl)c2)C1` was tested. Which Activity did it give?
**A.** Its Activity is “inactive”.

What follows are compounds tested on Plasmodium gallinaceum (assay: Antimalarial activity against Plasmodium gallinaceum at 320 mg/kg by sporozoite-induced chick test).
Type: functional, organism-based
Set-up: dose 320 mg/kg

**Q.** With `CCN1Cc2c(/C=C/c3ccccc3)nc3ccc(OC)cc3c2N(c2cccc(Cl)c2)C1` as the compound, how does the Activity read?
**A.** The Activity was “inactive”.
